According to patent publication US11555036B2, “FGFR4 inhibitor, preparation method therefor and pharmaceutical use thereof” (Abbisko Therapeutics Co., Ltd., priority 2016, dated 2023):

Experiments:
[1] = target: FGFR4 (Homo sapiens, UniProt P22455); assay: FGFR4 Caliper Assay (in vitro biochemical kinase analysis of FGFR4); details: read-out: Enzymatic activity FGFR4 IC50
In short: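 Kinase reaction at 30° C for 40 min in 50 mM HEPES pH 7.5, 16 mM MgCl2, 1 mM DTT, 0.6% DMSO, stopped with EDTA. Phosphorylated and unphosphorylated fluorescent peptides separated by Caliper microfluidic mobility shift. IC50 by non-linear regression of percent inhibition.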

[2] = test system: Huh7 hepatocellular carcinoma cells; assay: FGFR4 cell proliferation experiment, Cell Titer Glo (CTG); assay type: cell-based; details: HuH-7 cells, 3 days; for IC50: concentration leading to absolute half growth inhibition; for EC50: concentration leading to half maximal growth inhibition
In short: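 Cells treated with 5-fold serial dilutions starting at 10 μM for 3 days at 37° C, 5% CO2. Proliferation/survival quantified as cellular ATP by CellTiter-Glo luminescence.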

Chain of FGFR4 (P22455 22-802): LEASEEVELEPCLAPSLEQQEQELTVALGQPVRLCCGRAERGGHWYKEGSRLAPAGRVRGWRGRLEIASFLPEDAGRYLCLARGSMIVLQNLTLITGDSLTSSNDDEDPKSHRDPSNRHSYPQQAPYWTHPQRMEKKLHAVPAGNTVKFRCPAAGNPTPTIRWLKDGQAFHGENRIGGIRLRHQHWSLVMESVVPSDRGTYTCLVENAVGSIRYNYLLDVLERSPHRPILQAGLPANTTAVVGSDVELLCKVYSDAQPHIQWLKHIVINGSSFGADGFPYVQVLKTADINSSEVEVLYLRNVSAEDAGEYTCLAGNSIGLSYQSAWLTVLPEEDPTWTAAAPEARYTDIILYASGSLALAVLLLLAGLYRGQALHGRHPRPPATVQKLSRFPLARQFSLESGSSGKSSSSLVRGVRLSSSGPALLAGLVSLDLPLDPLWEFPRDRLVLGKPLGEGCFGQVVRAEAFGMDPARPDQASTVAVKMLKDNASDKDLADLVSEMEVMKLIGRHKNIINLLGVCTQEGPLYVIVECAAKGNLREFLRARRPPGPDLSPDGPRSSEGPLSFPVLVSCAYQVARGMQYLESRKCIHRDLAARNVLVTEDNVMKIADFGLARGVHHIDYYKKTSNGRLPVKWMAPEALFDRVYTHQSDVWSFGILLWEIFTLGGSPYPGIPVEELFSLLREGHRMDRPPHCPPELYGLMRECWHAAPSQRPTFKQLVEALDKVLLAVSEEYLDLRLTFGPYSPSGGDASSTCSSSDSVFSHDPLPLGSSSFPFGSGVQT

C=CC(=O)N[C@H]1CCOC[C@H]1Nc1ncc2cc(-c3c(F)c(OC)cc(OC)c3F)nc(N3CCOCC3)c2n1 [Example 789, N-((3S,4)S-3-((6-(2,6-difluoro-3,5-dimethoxyphenyl)-8-morpholinopy-rido[3,4-d]pyrimidin-2-yl)amino)tetra-hydro-2H-pyran-4-yl)acrylamide]
IC50 [1]: 7.8 nM
IC50 ([2]; Homo sapiens, Huh-7, 72 h): 15.9 nM
EC50 ([2]; Homo sapiens, Huh-7, 72 h): 12.6 nM

C=CC(=O)N[C@H]1CCOC[C@H]1Nc1ncc2cc(-c3c(F)c(OC)cc(OC)c3F)nc(N3CC(C)(OC)C3)c2n1 [Example 790, N-((3S,4S)-3-((6-(2,6-difluoro-3,5-dimethoxyphenyl)-8-(3-methoxy-3-methylazetidin-1-yl)pyrido[3,4-d]py-rimidin-2-yl)amino)tetrahydro-2H-pyran-4-yl)acrylamide]
IC50 [1]: 8.5 nM
IC50 ([2]; Homo sapiens, Huh-7, 72 h): 13.6 nM
EC50 ([2]; Homo sapiens, Huh-7, 72 h): 11.4 nM

C=CC(=O)N[C@H]1CCOC[C@H]1Nc1ncc2cc(-c3c(F)c(OC)cc(OC)c3F)nc(N3CC(F)(F)C3)c2n1 [Example 791, N-((3S,4S)-3-((6-(2,6-difluoro-3,5-dimethoxyphenyl)-8-(3,3-difluoroazet-idin-1-yl)pyrido[3,4-d]pyrimidin-2-yl)amino)tetrahydro-2H-pyran-4-yl)acrylamide]
IC50 [1]: 3.7 nM
IC50 ([2]; Homo sapiens, Huh-7, 72 h): 8.4 nM
EC50 ([2]; Homo sapiens, Huh-7, 72 h): 6.4 nM

C=CC(=O)N[C@H]1CCOC[C@H]1Nc1ncc2cc(-c3c(F)c(OC)cc(OC)c3F)nc(N3CCC3)c2n1 [Example 792, N-((3S,4S)-3-((8-(azetidin-1-yl)-6-(2,6-difluoro-3,5-dimethoxyphenyl)py-rido[3,4-d]pyrimidin-2-yl)amino)tetra-hydro-2H-pyran-4-yl)acrylamide]
IC50 [1]: 3.1 nM
IC50 ([2]; Homo sapiens, Huh-7, 72 h): 6.2 nM
EC50 ([2]; Homo sapiens, Huh-7, 72 h): 4.8 nM

C=CC(=O)N[C@H]1CCOC[C@H]1Nc1ncc2cc(-c3c(F)c(OC)cc(OC)c3F)nc(N3CC(C)(O)C3)c2n1 [Example 793, N-((3S,4S)-3-((6-(2,6-difluoro-3,5-dimethoxyphenyl)-8-(3-hydroxy-3-methylazetidin-1-yl)pyrido[3,4-d]py-rimidin-2-yl)amino)tetrahydro-2H-pyran-4-yl)acrylamide]
IC50 [1]: 5.3 nM
IC50 ([2]; Homo sapiens, Huh-7, 72 h): 9.9 nM
EC50 ([2]; Homo sapiens, Huh-7, 72 h): 7.9 nM

C=CC(=O)N[C@H]1CCOC[C@H]1Nc1ncc2cc(-c3c(F)c(OC)cc(OC)c3F)nc(N3CCC(OC)C3)c2n1 (stereo partly drawn) [Example 794, N-((3S,4S)-3-((6-(2,6-difluoro-3,5-dimethoxyphenyl)-8-(3-methoxy-pyrrolidin-1-yl)pyrido[3,4-d]py-rimidin-2-yl)amino)tetrahydro-2H-pyran-4-yl)acrylamide]
IC50 [1]: 4.8 nM
IC50 ([2]; Homo sapiens, Huh-7, 72 h): 6.9 nM
EC50 ([2]; Homo sapiens, Huh-7, 72 h): 5.5 nM

C=CC(=O)N[C@H]1CCOC[C@H]1Nc1ncc2cc(-c3c(F)c(OC)cc(OC)c3F)nc(N3CCC(OC)CC3)c2n1 [Example 795, N-((3S,4S)-3-((6-(2,6-difluoro-3,5-dimethoxyphenyl)-8-(4-methoxy-piperidin-1-yl)pyrido[3,4-d]pyrimidin-2-yl)amino)tetrahydro-2H-pyran-4-yl)acrylamide]
IC50 [1]: 7.5 nM
IC50 ([2]; Homo sapiens, Huh-7, 72 h): 11.8 nM
EC50 ([2]; Homo sapiens, Huh-7, 72 h): 9.5 nM

C=CC(=O)N[C@H]1CCOC[C@H]1Nc1ncc2cc(-c3c(F)c(OC)cc(OC)c3F)nc(N3CC4CC(C3)O4)c2n1 [Example 796, N-((3S,4S)-3-((8-(6-oxa-3-aza-bicyclo[3.1.1]heptan-3-yl)-6-(2,6-difluoro-3,5-dimethoxyphenyl)py-rido[3,4-d]pyrimidin-2-yl)a-mino)tetrahydro-2H-pyran-4-yl)acrylamide]
IC50 [1]: 23 nM
IC50 ([2]; Homo sapiens, Huh-7, 72 h): 47.8 nM
EC50 ([2]; Homo sapiens, Huh-7, 72 h): 38 nM

N-((3S,4S)-3-((6-(2,6-dichloro-3,5-di- methoxyphenyl)-8-(methylamino)py- rido[3,4-d]pyrimidin-2-yl)amino)tetra- hydro-2H-pyran-4-yl)acrylamide [Example 510]
IC50 [1]: 29 nM
IC50 [2]: 116 nM
EC50 [2]: 75.2 nM
